Patent US20110237493A1, “DIPEPTIDE LINKED MEDICINAL AGENTS” (priority 2008, published 2011)
Where two headings read alike, the source gives them in different places. Where a SMILES comes first, the peptide text is derived from it. [ ]: non-standard residue; d: D form. NHexGly = CCCCCCNCC(=O)O; Sar = CNCC(=O)O

Assays:
[1] = Rate of model dipeptide cleavage in PBS (HPLC / LC-MS); conditions: for half-life at 1 mg/ml: buffer; for Relative peak area (%) HPLC peak a (molecular weight 702) / Relative peak area (%) HPLC peak b (molecular weight 902): PBS, 37° C.
Procedure: The solution was incubated at 37° C. […] The dipeptide cleavage was quenched by lowering the pH with an equal volume of 0.1% TFA. The rate of cleavage was qualitatively monitored by LC-MS and quantitatively studied by HPLC. The retention time and relative peak area for the prodrug and the parent model peptide were quantified using Peak Simple Chromatography software.
The flow rate was 1 ml/min.
The concentrations of the prodrugs and the model parent peptide were determined by their respective peak areas, ‘a’ and ‘b’ for each of the different collection times (Table 1). […] The slope of this plot provides the rate constant ‘k’.

[2] = plasma

C[C@@H](O)[C@H](NC(=O)CNC(=O)[C@H](CCCNC(=N)N)NC(=O)[C@H](CO)NC(=O)[C@H](Cc1c[nH]cn1)NC(=O)CN(C)C(=O)C(C)(C)N)C(=O)N[C@@H](Cc1ccccc1)C(N)=O [Compound 24]
half-life at 1 mg/ml [1]: 0.817 h

C[C@@H](O)[C@H](NC(=O)CNC(=O)[C@H](CCCNC(=N)N)NC(=O)[C@H](CO)NC(=O)[C@H](Cc1c[nH]cn1)NC(=O)CN(C)C(=O)[C@@H](N)CCCCN)C(=O)N[C@@H](Cc1ccccc1)C(N)=O [Compound 33]
t1/2 of cleavage of dipeptide A-B ([1]; in PBS, A-B linked to position 1 (X) of model hexapeptide XSRGTF-NH2): 14 h

C[C@@H](O)[C@H](NC(=O)CNC(=O)[C@H](CCCNC(=N)N)NC(=O)[C@H](CO)NC(=O)[C@H](Cc1c[nH]cn1)NC(=O)CN(C)C(=O)[C@H](N)CCCCN)C(=O)N[C@@H](Cc1ccccc1)C(N)=O [Compound 30]
half-life at 1 mg/ml [1]: 27 h

C[C@@H](O)[C@H](NC(=O)CNC(=O)[C@H](CCCNC(=N)N)NC(=O)[C@H](CO)NC(=O)[C@H](Cc1c[nH]cn1)NC(=O)CN(C)C(=O)[C@@H](N)CCCCN)C(=O)N[C@@H](Cc1ccccc1)C(N)=O [peptide A, Lys-Sar-HSRGTF-NH2]
Relative peak area (%) HPLC peak a (molecular weight 702) ([1]; 5 h): 26.5%
Relative peak area (%) HPLC peak b (molecular weight 902) ([1]; 5 h): 73.5%
Relative peak area (%) HPLC peak a (molecular weight 702) ([1]; 8 h): 28.9%
Relative peak area (%) HPLC peak b (molecular weight 902) ([1]; 8 h): 71.1%
Relative peak area (%) HPLC peak a (molecular weight 702) ([1]; 24 h): 28.8%
Relative peak area (%) HPLC peak b (molecular weight 902) ([1]; 24 h): 71.2%
Relative peak area (%) HPLC peak a (molecular weight 702) ([1]; 31 h): 77.7%
Relative peak area (%) HPLC peak b (molecular weight 902) ([1]; 31 h): 22.3%
Relative peak area (%) HPLC peak a (molecular weight 702) ([1]; 47 h): 90.0%
Relative peak area (%) HPLC peak b (molecular weight 902) ([1]; 47 h): 10.0%
half-life at 1 mg/ml [1]: 14 h

C[C@@H](O)[C@H](NC(=O)CNC(=O)[C@H](CCCNC(=N)N)NC(=O)[C@H](CO)NC(=O)[C@H](Cc1c[nH]cn1)NC(=O)CN(C)C(=O)[C@@H](N)CO)C(=O)N[C@@H](Cc1ccccc1)C(N)=O [Compound 35] (H-S[Sar]HSRGTF-NH2)
half-life at 1 mg/ml [1]: 17 h

C[C@@H](O)[C@H](NC(=O)CNC(=O)[C@H](CCCNC(=N)N)NC(=O)[C@H](CO)NC(=O)[C@H](Cc1c[nH]cn1)NC(=O)CN(C)C(=O)[C@@H]1CCCN1)C(=O)N[C@@H](Cc1ccccc1)C(N)=O [Compound 36] (H-P[Sar]HSRGTF-NH2)
half-life at 1 mg/ml [1]: 181 h

CCCCCCN(CC(=O)N[C@@H](Cc1c[nH]cn1)C(=O)N[C@@H](CO)C(=O)N[C@@H](CCCNC(=N)N)C(=O)NCC(=O)N[C@H](C(=O)N[C@@H](Cc1ccccc1)C(N)=O)[C@@H](C)O)C(=O)C(C)(C)N [Compound 25]
half-life at 1 mg/ml [1]: 0.167 h

C[C@@H](O)[C@H](NC(=O)CNC(=O)[C@H](CCCNC(=N)N)NC(=O)[C@H](CO)NC(=O)[C@H](Cc1c[nH]cn1)NC(=O)CN(C)C(=O)CO)C(=O)N[C@@H](Cc1ccccc1)C(N)=O [Compound 28]
half-life at 1 mg/ml [1]: 149 h

C[C@@H](O)[C@H](NC(=O)CNC(=O)[C@H](CCCNC(=N)N)NC(=O)[C@H](CO)NC(=O)[C@H](Cc1c[nH]cn1)NC(=O)CN(C)C(=O)[C@@H](N)Cc1ccccc1)C(=O)N[C@@H](Cc1ccccc1)C(N)=O [Compound 34] (H-F[Sar]HSRGTF-NH2)
half-life at 1 mg/ml [1]: 29 h

C[C@H](O)[C@@H](NC(=O)CNC(=O)[C@@H](CCCNC(=N)N)NC(=O)[C@H](NC(=O)[C@@H](Cc1c[nH]cn1)NC(=O)CN(C)C(=O)[C@@H](N)CCCCN)[C@H](C)O)C(=O)N[C@H](Cc1ccccc1)C(N)=O [peptide B, Lys-Sar-dHdTdRGdTdF-NH2] (H-K[Sar][dH][dT][dR]G[dT][dF]-NH2)
Relative peak area (%) HPLC peak a (molecular weight 702) ([2]; 5 h): 17.0%
Relative peak area (%) HPLC peak b (molecular weight 902) ([2]; 5 h): 83.0%
Relative peak area (%) HPLC peak a (molecular weight 702) ([2]; 11 h): 29.2%
Relative peak area (%) HPLC peak b (molecular weight 902) ([2]; 11 h): 70.8%
Relative peak area (%) HPLC peak a (molecular weight 702) ([2]; 24 h): 60.2%
Relative peak area (%) HPLC peak b (molecular weight 902) ([2]; 24 h): 39.8%
Relative peak area (%) HPLC peak a (molecular weight 702) ([2]; 32 h): 54.0%
Relative peak area (%) HPLC peak b (molecular weight 902) ([2]; 32 h): 46.0%
Relative peak area (%) HPLC peak a (molecular weight 702) ([2]; 48 h): 27.6%
Relative peak area (%) HPLC peak b (molecular weight 902) ([2]; 48 h): 72.4%

CCCCCCN(CC(=O)N[C@@H](Cc1c[nH]cn1)C(=O)N[C@@H](CO)C(=O)N[C@@H](CCCNC(=N)N)C(=O)NCC(=O)N[C@H](C(=O)N[C@@H](Cc1ccccc1)C(N)=O)[C@@H](C)O)C(=O)CN [Compound 29] (H-G[NHexGly]HSRGTF-NH2)
half-life at 1 mg/ml [1]: 70 h

C[C@@H](O)[C@H](NC(=O)CNC(=O)[C@H](CCCNC(=N)N)NC(=O)[C@H](CO)NC(=O)[C@H](Cc1c[nH]cn1)NC(=O)CN(C)C(=O)CN)C(=O)N[C@@H](Cc1ccccc1)C(N)=O [Compound 27] (H-G[Sar]HSRGTF-NH2)
half-life at 1 mg/ml [1]: 104 h
